Publication PMC12198282, “Application of a high-density microelectrode array assay using a 3D human iPSC-derived brain microphysiological system model for in vitro neurotoxicity screening of environmental compounds” (Archives of Toxicology, 2025)
pEC50: −log10 of the molar value. Like-named read-outs stand apart in the source and are kept apart here.

Assays:
[1] = test system: co-culture of iPSC-derived excitatory and inhibitory neurons, and primary human astrocytes; design: method as in Bartmann et al. [2023]; details: ref Bartmann et al. [2023], cited from earlier work
[2] = test system: human iPSC-derived 3D BrainSpheres; experiment: BrainSphere MEA assay (HD-MEA, 13-day exposure, concentration-response); type: cell-based; details: for EC (benchmark response 1.349 SD): 312 h; for AC50: concentration at 50% maximal activity, Supplement 3 prints it also for curves with hit call 0; as to hitc Mean.Spheroid.Burst.Duration: key: 1 (active); 0 (inactive); as to hitc Mean.Spheroid.Burst.ISI: key: 1 (active); 0 (inactive); as to hitc Mean.Spheroid.Burst.Peak.Firing.Rate: key: 1 (active); 0 (inactive); as to hitc Mean.Spheroid.Firing.Rate: key: 1 (active); 0 (inactive); as to hitc Mean.Spheroid.IBI: key: 1 (active); 0 (inactive); as to hitc Mean.Spheroid.Nonburst.ISI: key: 1 (active); 0 (inactive); as to hitc Mean.Spheroid.Spikes.per.Burst.per.Electrode: key: 1 (active); 0 (inactive); as to hitc Mean.Spheroid.Spikes.per.Burst: key: 1 (active); 0 (inactive); as to hitc Spheroid.Burst.Frequency: key: 1 (active); 0 (inactive); as to hitc Spheroid.Spike.Amplitude.90th.Percentile: key: 1 (active); 0 (inactive)
Procedure, shortened: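 Recordings used a 5× RMS spike threshold and 600 s network scans of fixed electrode regions, each region clustered as one BrainSphere. Spheres had 7 weeks of differentiation and 48 h attachment on coated HD-MEA chips before day 0 of the 13-day concentration-response exposure. At least three independent plates were run.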

[3] = test system: 2D rat cortical cultures; details: cited from earlier work; for AC50: rNFA mc5; as to hitc CCTE Shafer MEA dev active electrodes number: key: 1 (active); 0 (inactive); as to hitc CCTE Shafer MEA dev burst duration mean: key: 1 (active); 0 (inactive); as to hitc CCTE Shafer MEA dev burst rate: key: 1 (active); 0 (inactive); as to hitc CCTE Shafer MEA dev bursting electrodes number: key: 1 (active); 0 (inactive); as to hitc CCTE Shafer MEA dev correlation coefficient mean: key: 1 (active); 0 (inactive); as to hitc CCTE Shafer MEA dev firing rate mean: key: 1 (active); 0 (inactive); as to hitc CCTE Shafer MEA dev inter network spike interval mean: key: 1 (active); 0 (inactive); as to hitc CCTE Shafer MEA dev interburst interval mean: key: 1 (active); 0 (inactive); as to hitc CCTE Shafer MEA dev mutual information norm: key: 1 (active); 0 (inactive); as to hitc CCTE Shafer MEA dev network spike duration std: key: 1 (active); 0 (inactive); as to hitc CCTE Shafer MEA dev network spike number: key: 1 (active); 0 (inactive); as to hitc CCTE Shafer MEA dev network spike peak: key: 1 (active); 0 (inactive); as to hitc CCTE Shafer MEA dev per burst interspike interval: key: 1 (active); 0 (inactive); as to hitc CCTE Shafer MEA dev per burst spike percent: key: 1 (active); 0 (inactive); as to hitc CCTE Shafer MEA dev per network spike spike number mean: key: 1 (active); 0 (inactive); as to hitc CCTE Shafer MEA dev per network spike spike percent: key: 1 (active); 0 (inactive); as to hitc CCTE Shafer MEA dev spike duration mean: key: 1 (active); 0 (inactive)
[4] = AUC over 13-day exposure, tcplfit2
[5] = tcplfit2 BMD at benchmark response (1.349*SD of baseline controls)
[6] = tcplfit2 output ACC, activity cutoff in Supplemental Table 1

## CC1(C)[C@H](C(=O)O[C@H](C#N)c2cccc(Oc3ccccc3)c2)[C@@H]1C=C(Br)Br [Deltamethrin]
[1]; read-out: Mean potency in the hNNF
  pEC50: 5.45
[1]; read-out: Minimum potency in the hNNF
  pEC50: 5.56
[2]; 5th percentile across active AC50 values per chemical, read-out: Minimum potency
  pEC50: 5.80
[2]; 5th percentile of AC50 values by chemical, above 0.5 = more potent in the rNFA
  Difference of minimum potency between BrainSphere MEA assay and rNFA: ≤ 0.5 log10 µM
[2]; [4]
  hitc Mean.Spheroid.Burst.Duration: 1
  hitc Mean.Spheroid.Burst.ISI: 1
  hitc Mean.Spheroid.Burst.Peak.Firing.Rate: 1
  hitc Mean.Spheroid.Firing.Rate: 1
  hitc Mean.Spheroid.IBI: 1
  hitc Mean.Spheroid.Nonburst.ISI: 1
  hitc Mean.Spheroid.Spikes.per.Burst: 1
  hitc Mean.Spheroid.Spikes.per.Burst.per.Electrode: 1
  hitc Spheroid.Burst.Frequency: 1
  hitc Spheroid.Spike.Amplitude.90th.Percentile: 1
[2]; Homo sapiens, 5th percentile across active AC50 values per chemical, read-out: Minimum potency
  pEC50: 6.00
[2]; Homo sapiens, tcplfit2 BMD at benchmark response (1.349*SD of baseline controls), read-out: BMD Mean.Spheroid.Burst.ISI
  EC (benchmark response 1.349 SD): 7.6 µM
[2]; Homo sapiens, tcplfit2 BMD at benchmark response (1.349*SD of baseline controls), read-out: BMD Mean.Spheroid.Nonburst.ISI
  EC (benchmark response 1.349 SD): 9.4 µM
[2]; Homo sapiens, read-out: ac50 Mean.Spheroid.Burst.Duration
  AC50: 3.3 µM
[2]; Homo sapiens, read-out: ac50 Mean.Spheroid.Burst.ISI
  AC50: 8.4 µM
[2]; Homo sapiens, read-out: ac50 Mean.Spheroid.Burst.Peak.Firing.Rate
  AC50: 3.8 µM
[2]; Homo sapiens, read-out: ac50 Mean.Spheroid.Firing.Rate
  AC50: 3.5 µM
[2]; Homo sapiens, read-out: ac50 Mean.Spheroid.IBI
  AC50: 10 µM
[2]; Homo sapiens, read-out: ac50 Mean.Spheroid.Nonburst.ISI
  AC50: 9.8 µM
[2]; Homo sapiens, read-out: ac50 Mean.Spheroid.Spikes.per.Burst
  AC50: 1.9 µM
[2]; Homo sapiens, read-out: ac50 Mean.Spheroid.Spikes.per.Burst.per.Electrode
  AC50: 1.4 µM
[2]; Homo sapiens, read-out: ac50 Spheroid.Burst.Frequency
  AC50: 5.9 µM
[2]; Homo sapiens, read-out: ac50 Spheroid.Spike.Amplitude.90th.Percentile
  AC50: 4 µM
[2]; Homo sapiens, mean across active AC50 values per chemical, read-out: Mean potency
  pEC50: 5.35
[2]; read-out: ac50 Mean.Spheroid.Burst.Duration
  AC50: 3.31 µM
[2]; read-out: ac50 Mean.Spheroid.Burst.ISI
  AC50: 8.39 µM
[2]; read-out: ac50 Mean.Spheroid.Burst.Peak.Firing.Rate
  AC50: 3.77 µM
[2]; read-out: ac50 Mean.Spheroid.Firing.Rate
  AC50: 3.49 µM
[2]; read-out: ac50 Mean.Spheroid.IBI
  AC50: 10.4 µM
[2]; read-out: ac50 Mean.Spheroid.Nonburst.ISI
  AC50: 9.81 µM
[2]; read-out: ac50 Mean.Spheroid.Spikes.per.Burst
  AC50: 1.85 µM
[2]; read-out: ac50 Mean.Spheroid.Spikes.per.Burst.per.Electrode
  AC50: 1.4 µM
[2]; read-out: ac50 Spheroid.Burst.Frequency
  AC50: 5.88 µM
[2]; read-out: ac50 Spheroid.Spike.Amplitude.90th.Percentile
  AC50: 3.97 µM
[2]; mean across active AC50 values per chemical, read-out: Mean potency
  pEC50: 5.28
[2]; metrics active out of the total number of metrics screened
  Percent active: 100%
[2]; [5]
  BMD Mean.Spheroid.Burst.Duration: 1.9 µM
  BMD Mean.Spheroid.Burst.Peak.Firing.Rate: 2.4 µM
  BMD Mean.Spheroid.Firing.Rate: 3.6 µM
  BMD Mean.Spheroid.IBI: 9.6 µM
  BMD Mean.Spheroid.Spikes.per.Burst: 1.2 µM
  BMD Mean.Spheroid.Spikes.per.Burst.per.Electrode: 0.69 µM
  BMD Spheroid.Burst.Frequency: 6 µM
  BMD Spheroid.Spike.Amplitude.90th.Percentile: 1.6 µM
[2]; [6]
  ACC Mean.Spheroid.Burst.Duration: 1.7 µM
  ACC Mean.Spheroid.Burst.ISI: 7 µM
  ACC Mean.Spheroid.Burst.Peak.Firing.Rate: 2.2 µM
  ACC Mean.Spheroid.Firing.Rate: 5.2 µM
  ACC Mean.Spheroid.IBI: 10 µM
  ACC Mean.Spheroid.Nonburst.ISI: 9.6 µM
  ACC Mean.Spheroid.Spikes.per.Burst: 2 µM
  ACC Mean.Spheroid.Spikes.per.Burst.per.Electrode: 0.92 µM
  ACC Spheroid.Burst.Frequency: 5.1 µM
  ACC Spheroid.Spike.Amplitude.90th.Percentile: 2.2 µM
[2]; total number of active endpoints out of 10 MEA activity metrics, 13-day exposure
  Hits: 10
[3]; aenm active_electrodes_number, read-out: ac50 CCTE_Shafer_MEA_dev_active_electrodes_number
  AC50: 8.89 µM
[3]; aenm burst_duration_mean, read-out: ac50 CCTE_Shafer_MEA_dev_burst_duration_mean
  AC50: 5.29 µM
[3]; aenm burst_rate, read-out: ac50 CCTE_Shafer_MEA_dev_burst_rate
  AC50: 3.87 µM
[3]; aenm bursting_electrodes_number, read-out: ac50 CCTE_Shafer_MEA_dev_bursting_electrodes_number
  AC50: 3.71 µM
[3]; aenm correlation_coefficient_mean, read-out: ac50 CCTE_Shafer_MEA_dev_correlation_coefficient_mean
  AC50: 2.04 µM
[3]; aenm firing_rate_mean, read-out: ac50 CCTE_Shafer_MEA_dev_firing_rate_mean
  AC50: 3.1 µM
[3]; aenm mutual_information_norm, read-out: ac50 CCTE_Shafer_MEA_dev_mutual_information_norm
  AC50: 0.641 µM
[3]; aenm network_spike_duration_std, read-out: ac50 CCTE_Shafer_MEA_dev_network_spike_duration_std
  AC50: 3.82 µM
[3]; aenm network_spike_number, read-out: ac50 CCTE_Shafer_MEA_dev_network_spike_number
  AC50: 0.853 µM
[3]; aenm network_spike_peak, read-out: ac50 CCTE_Shafer_MEA_dev_network_spike_peak
  AC50: 7.54 µM
[3]; aenm per_burst_interspike_interval, read-out: ac50 CCTE_Shafer_MEA_dev_per_burst_interspike_interval
  AC50: 15 µM
[3]; aenm per_burst_spike_percent, read-out: ac50 CCTE_Shafer_MEA_dev_per_burst_spike_percent
  AC50: 7.16 µM
[3]; aenm per_network_spike_spike_number_mean, read-out: ac50 CCTE_Shafer_MEA_dev_per_network_spike_spike_number_mean
  AC50: 3.96 µM
[3]; aenm per_network_spike_spike_percent, read-out: ac50 CCTE_Shafer_MEA_dev_per_network_spike_spike_percent
  AC50: 1.8 µM
[3]; aenm spike_duration_mean, read-out: ac50 CCTE_Shafer_MEA_dev_spike_duration_mean
  AC50: 6.4 µM
[3]; rNFA mc5 hit call, aenm active_electrodes_number
  hitc CCTE_Shafer_MEA_dev_active_electrodes_number: 1
[3]; rNFA mc5 hit call, aenm burst_duration_mean
  hitc CCTE_Shafer_MEA_dev_burst_duration_mean: 1
[3]; rNFA mc5 hit call, aenm burst_rate
  hitc CCTE_Shafer_MEA_dev_burst_rate: 1
[3]; rNFA mc5 hit call, aenm bursting_electrodes_number
  hitc CCTE_Shafer_MEA_dev_bursting_electrodes_number: 1
[3]; rNFA mc5 hit call, aenm correlation_coefficient_mean
  hitc CCTE_Shafer_MEA_dev_correlation_coefficient_mean: 1
[3]; rNFA mc5 hit call, aenm firing_rate_mean
  hitc CCTE_Shafer_MEA_dev_firing_rate_mean: 1
[3]; rNFA mc5 hit call, aenm inter_network_spike_interval_mean
  hitc CCTE_Shafer_MEA_dev_inter_network_spike_interval_mean: 0
[3]; rNFA mc5 hit call, aenm interburst_interval_mean
  hitc CCTE_Shafer_MEA_dev_interburst_interval_mean: 0
[3]; rNFA mc5 hit call, aenm mutual_information_norm
  hitc CCTE_Shafer_MEA_dev_mutual_information_norm: 1
[3]; rNFA mc5 hit call, aenm network_spike_duration_std
  hitc CCTE_Shafer_MEA_dev_network_spike_duration_std: 1
[3]; rNFA mc5 hit call, aenm network_spike_number
  hitc CCTE_Shafer_MEA_dev_network_spike_number: 1
[3]; rNFA mc5 hit call, aenm network_spike_peak
  hitc CCTE_Shafer_MEA_dev_network_spike_peak: 1
[3]; rNFA mc5 hit call, aenm per_burst_interspike_interval
  hitc CCTE_Shafer_MEA_dev_per_burst_interspike_interval: 1
[3]; rNFA mc5 hit call, aenm per_burst_spike_percent
  hitc CCTE_Shafer_MEA_dev_per_burst_spike_percent: 1
[3]; rNFA mc5 hit call, aenm per_network_spike_spike_number_mean
  hitc CCTE_Shafer_MEA_dev_per_network_spike_spike_number_mean: 1
[3]; rNFA mc5 hit call, aenm per_network_spike_spike_percent
  hitc CCTE_Shafer_MEA_dev_per_network_spike_spike_percent: 1
[3]; rNFA mc5 hit call, aenm spike_duration_mean
  hitc CCTE_Shafer_MEA_dev_spike_duration_mean: 1
